# How the values were obtained:
# Format in all cases: cell-based
# DU145 cells (prostate) = test: Cytotoxicity, WST-1 cell viability test, DU145; conditions: Homo sapiens, DU-145, after 96 hours of treatment, read-out: Concentration decreasing by 50% the cell viability
# Procedure: (§1) Eight cell lines originating from different types of cancer were used: PC3 and DU145 (prostate), HT-29 and LS-174T (colon), Hep G2 (liver), MCF-7 (breast), MIA PaCa-2 and PANC-1 (pancreas).
# (§2) The cells are cultured in the specific culture medium described in Table II, at 37° C., 5% CO2, according to the operating procedures that are well known to the person skilled in the art.
# (§3) After thawing and amplification of the cancer cells in the appropriate culture medium (described in 1.2.), 96-well plates are inoculated with these cells and incubated or not incubated (controls) in their respective culture medium, in the presence of the compounds to be tested at 10, 50, 100, 250 and 500 μM.
# (§4) After 96 h of incubation, each 96-well plate is analyzed in order to measure the viability of the cells using a colorimetric test with WST-1.
# LS174T cells (colon) = test: Cytotoxicity, WST-1 cell viability test, LS174T; conditions: Homo sapiens, after 96 hours of treatment, read-out: Concentration decreasing by 50% the cell viability
# Procedure: as §1, §2, §3, §4
# HT-29 cells (colon) = test: Cytotoxicity, WST-1 cell viability test, HT-29; conditions: Homo sapiens, after 96 hours of treatment, read-out: Concentration decreasing by 50% the cell viability
# Procedure: as §1, §2, §3, §4
# MCF-7 cells (breast) = test: Cytotoxicity, WST-1 cell viability test, MCF-7; conditions: Homo sapiens, MCF7, after 96 hours of treatment, read-out: Concentration decreasing by 50% the cell viability
# Procedure: as §1, §2, §3, §4
# Hep G2 cells (liver) = test: Cytotoxicity, WST-1 cell viability test, Hep G2; conditions: Homo sapiens, HepG2, after 96 hours of treatment, read-out: Concentration decreasing by 50% the cell viability
# Procedure: as §1, §2, §3, §4
# [1] = tested on: MIA PaCa-2 cells (pancreas); test: Cytotoxicity, WST-1 cell viability test, MIA PaCa-2; conditions: Homo sapiens, after 96 hours of treatment, read-out: Concentration decreasing by 50% the cell viability
# Procedure: as §1, §2, §3, §4
# PANC-1 cells (pancreas) = test: Cytotoxicity, WST-1 cell viability test, PANC-1; conditions: Homo sapiens, after 96 hours of treatment, read-out: Concentration decreasing by 50% the cell viability
# Procedure: as §1, §2, §3, §4
# PC3 cells (prostate) = test: Cytotoxicity, WST-1 cell viability test, PC3; conditions: Homo sapiens, PC-3, after 96 hours of treatment, read-out: Concentration decreasing by 50% the cell viability
# Procedure: as §1, §2, §3, §4
Structure (SMILES),IC50 (DU145 cells (prostate)) [µM],IC50 (LS174T cells (colon)) [µM],IC50 (HT-29 cells (colon)) [µM],IC50 (MCF-7 cells (breast)) [µM],IC50 (Hep G2 cells (liver)) [µM],IC50 [1] [µM],IC50 (PANC-1 cells (pancreas)) [µM],IC50 (PC3 cells (prostate)) [µM]
"C[Se]CC(O)C(=O)O (stereo not shown) [Compound 10, 2-hydroxy-3-(methylseleno)propanoic acid]",392,430,328,,,,,
"CCCCCCCCCCCC(=O)OC(C[Se]C)C(=O)O (stereo not shown) [Compound 38, 2-(dodecanoyloxy)-3-(methylseleno)propanoic acid]",169,113,166,215,263,308,253,198
"CCOC(=O)C(O)C[Se]C (stereo not shown) [Compound 4, ethyl ester of 2-hydroxy-3-(methylseleno)propanoic acid]",481,335,,,,,,

# Reference: patent publication US10308602B2, “Organoselenium compounds, method for producing same, and pharmaceutical uses thereof in particular as antitumor agents” (TETRAHEDRON, priority 2014, dated 2019)
